Experimental data as given in the supplement of paper PMC6580486.

system: U23674 (mouse alveolar rhabdomyosarcoma primary culture)
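Note: alveolar rhabdomyosarcoma tumor culture.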

| SMILES | IC50 cell viability [µM] |
| --- | --- |
| COc1cc(N2CCN(C(C)C)CC2)ccc1Nc1nc(Nc2ccc(F)cc2C(=O)NC[C@@H](O)CO)c2cc[nH]c2n1 | > 10 |
| COc1ccc2cc(-c3c(-c4ccncc4)nc(-c4ccc(S(C)(=O)=O)cc4C)n3C)ccc2c1 | > 10 |
| c1cc(-c2cnn3nc(N4CCOCC4)ccc23)nc(NC2CC2)n1 | > 10 |
| NS(=O)(=O)c1cccc(-c2ccc3c(NC(=O)C4CC4)n[nH]c3c2)c1 | > 10 |
| COc1cc(/C=N/Nc2ncnc3c2cnn3C(C)C)ccc1O | > 10 |
| CCn1c(-c2nonc2N)nc2c(C#CC(C)(C)O)ncc(OCC3CCNCC3)c21 | > 10 |
| CN(C)C(=O)O[C@@H]1CN[C@@H](C#Cc2cc3ncnc(Nc4ccc(OCc5cccc(F)c5)c(Cl)c4)c3s2)C1 | > 10 |
| Cc1ccc(NC(=O)CC2CC2)cc1-c1ccc(C(=O)NCC2CC2)cc1 | 3.4 |
| N#Cc1ccc2c(-c3ccnc(NC4CC4)n3)c(-c3ccc(F)cc3)nn2c1 | > 10 |
| O=C1NC(=O)C(c2ccccc2Cl)=C1Nc1cccc(O)c1 | 2 |
| C[C@@H](Oc1cc(-n2cnc3ccc(OC4CCN(C)CC4)cc32)sc1C(N)=O)c1ccccc1Cl | 0.9 |
| Cc1ccc(C(=O)NC2CC2)cc1-c1ccc2[nH]ncc2c1 | > 10 |
| CNC(=O)c1cncc(/C=C/c2ccccc2C)c1 | > 10 |
| NS(=O)(=O)c1ccc(-c2cc3ccncc3cc2OCc2ccccc2)cc1 | > 10 |
| Fc1ccc(-c2ncn(C3CCNCC3)c2-c2ccnc(Oc3ccc(F)c(F)c3)n2)cc1 | 6.2 |
| COc1cccc(-n2ncc3c(N/N=C/c4ccc(C)cc4)ncnc32)c1 | > 10 |
| CCOc1ccc2c(-c3ccnc(Nc4cccc(C(F)(F)F)c4)n3)cnn2n1 | > 10 |
| CN(C)CCCNc1nccc(-c2c(-c3ccc(F)cc3)nn3cc(C(F)(F)F)ccc23)n1 | 2.2 |
| O=C1NC(=O)C(c2cccc(Cl)c2)=C1Nc1ccc(Cl)c(C(=O)O)c1 | > 10 |
| COc1cc2ncn(-c3cc(O[C@@H](C)c4ccccc4Cl)c(C(N)=O)s3)c2cc1OC | > 10 |
| Nc1ncnc2occ(-c3ccc(NC(=O)Nc4cccc(C(F)(F)F)c4)cc3)c12 | 5.2 |
| Cc1nnc(-c2cccc(-c3ccc(C(=O)NCC4CC4)cc3)c2)o1 | > 10 |
| NC(=O)c1sc(-n2cnc3ccccc32)cc1OCc1ccccc1Br | > 10 |
| COc1ccc(-c2coc3ncnc(N)c23)cc1 | > 10 |
| COc1cc2c(cc1Nc1nc(Nc3cccc(F)c3C(N)=O)c3cc[nH]c3n1)N(C(=O)CN1CCN(C(C)C)CC1)CC2 | 3.2 |

| SMILES | IC50 cell viability [µM] |
| --- | --- |
| Cc1ccc2c(-c3ccnc(Nc4cccc(C(F)(F)F)c4)n3)c(-c3ccccc3)nn2n1 | > 10 |
| C[C@@H](Oc1cc(-n2cnc3ccc(OCC4CCN(C)CC4)cc32)sc1C(N)=O)c1ccccc1C(F)(F)F | 0.1 |
| [O-][S+]1CCN(Cc2ccc(-c3ccc4ncnc(Nc5ccc(OCc6ccccc6)c(F)c5)c4c3)o2)CC1 | > 10 |
| CN1CCC(n2cnc(-c3ccc(F)cc3)c2-c2ccnc(Nc3ccccc3)n2)CC1 | > 10 |
| CCC(=O)Nc1ccc(C)c(-c2ccc(C(=O)NCC3CC3)cc2)c1 | > 10 |
| NC(=O)c1cc(-c2ccncc2)cc(-c2ccccc2)c1N | > 10 |
| CN(c1ccc(NC(=O)NCCN2CCOCC2)cc1)c1ccnc(Nc2ccc(CS(C)(=O)=O)cc2)n1 | > 10 |
| CC1=C(C(=O)Nc2ccc3[nH]ncc3c2)C(c2ccc(F)cc2)NC(=O)N1 (stereo not given) | > 10 |
| COc1cccc(-n2ncc3c(N/N=C/c4ccncc4)ncnc32)c1 | > 10 |
| CCn1c(-c2nonc2N)nc2c(C#CCN)ncc(OCCCN)c21 | > 10 |
| COc1ccc(-c2nn3ncccc3c2-c2ccnc(Nc3ccc(F)c(F)c3)n2)cc1 | > 10 |
| C[C@@H](Oc1cc(-n2cnc3ccc(OCC4CCN(C)CC4)cc32)sc1C(N)=O)c1ccccc1Cl | 1.3 |
| COc1cc(Nc2ncc(-c3ccccc3)o2)cc(OC)c1OC | > 10 |
| COc1cc(Nc2nccc(-c3cnn4ncccc34)n2)cc(OC)c1 | 4 |
| COc1ccc(-c2cc(-c3cn[nH]c3-c3ccccn3)ccn2)cc1 | > 10 |
| CCNC(=O)O[C@H]1CN[C@H](C#Cc2cc3ncnc(Nc4ccc(OCc5cccc(F)c5)c(Cl)c4)c3s2)C1 | > 10 |
| Fc1cccc(COc2ccc(Nc3ncnc4sc(-c5cccs5)cc34)cc2Cl)c1 | > 10 |
| COc1ccc(CNC(=O)c2ccc(-c3cc(-c4nnc(C)o4)ccc3C)cc2)cc1 | > 10 |
| Cc1nn(C)c2cc(N(C)c3ccnc(Nc4cccc(S(N)(=O)=O)c4)n3)ccc12 | > 10 |
| COc1ccccc1-c1cc(/C=C2\C(=O)Nc3ncc(Br)cc32)cc(Br)c1O | > 10 |
| CC(=O)Nc1cccc(C#Cc2cncnc2Nc2ccc(OCc3cccc(F)c3)c(Cl)c2)c1 | > 10 |
| CCS(=O)(=O)c1ccc(OC)c(Nc2ncc(-c3cccc(F)c3)o2)c1 | > 10 |
| CS(=O)(=O)Nc1ccc(-c2ccc3c(NC(=O)C4CC4)n[nH]c3c2)cc1 | > 10 |
| Cn1c(-c2nonc2N)nc2cnccc21 | > 10 |
| CCn1c(-c2nonc2N)nc2c(C#CC(C)(C)O)ncc(OC3CCNCC3)c21 | > 10 |
